Assay results from PMC7806935, “Exosite inhibition of ADAMTS-5 by a glycoconjugated arylsulfonamide” (Scientific Reports, 2021).

Legend:
ADAMTS-4 [1] = molecular target: T1, ADAMTS-4 (Homo sapiens, UniProt O75173); experiment: QF peptide cleavage assay, ADAMTS-4; type: biochemical; details: 12-residue QF peptide substrate; mean ± SEM (n = 3); read-out: IC50 (μM) QF peptide ATS4
T1 construct: made in house
T1 sequence (O75173 213-837): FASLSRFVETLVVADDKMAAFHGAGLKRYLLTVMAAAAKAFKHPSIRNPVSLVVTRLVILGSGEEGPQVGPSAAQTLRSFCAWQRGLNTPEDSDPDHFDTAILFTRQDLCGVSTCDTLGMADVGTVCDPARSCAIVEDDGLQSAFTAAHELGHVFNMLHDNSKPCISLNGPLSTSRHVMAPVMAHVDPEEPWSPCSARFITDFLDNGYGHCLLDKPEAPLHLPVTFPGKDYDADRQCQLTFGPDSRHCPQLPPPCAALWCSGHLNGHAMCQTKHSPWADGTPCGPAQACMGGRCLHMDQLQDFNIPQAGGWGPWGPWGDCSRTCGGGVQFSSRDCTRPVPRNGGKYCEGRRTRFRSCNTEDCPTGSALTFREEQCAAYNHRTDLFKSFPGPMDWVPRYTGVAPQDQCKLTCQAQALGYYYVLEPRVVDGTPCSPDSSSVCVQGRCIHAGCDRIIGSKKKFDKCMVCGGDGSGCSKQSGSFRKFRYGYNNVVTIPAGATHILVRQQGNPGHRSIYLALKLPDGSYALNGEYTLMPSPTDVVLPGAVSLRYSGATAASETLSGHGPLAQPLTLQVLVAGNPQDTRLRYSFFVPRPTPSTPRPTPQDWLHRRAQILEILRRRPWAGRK
Procedure: (§1) All enzyme assays were conducted in TNC-B buffer (50 mM Tris–HCl, pH 7.5, 150 mM NaCl, 10 mM CaCl2, and 0.02% NaN3) at 37 °C. To avoid the formation of inhibitor aggregates, the detergent Brij-35 (0.05%) was added to the assay buffer. No aggregation was visually observed at concentrations up to 2 mM. The inhibitor stock solutions in DMSO (10 mM) were diluted at different concentrations in assay buffer and incubated with ADAMTS-4 or ADAMTS-5 for 2 h at 37 °C. Percent of inhibition was calculated from control reactions containing only DMSO. IC50 values were determined using the formula: vi/v0 = 1/(1 + [I]/IC50) where vi is the initial velocity of substrate cleavage in the presence of the inhibitor at concentration [I] and v0 is the initial velocity in the presence of an equal concentration (v/v) of DMSO.
QF peptide cleavage assays were conducted in 96-well black microtiter plates (Scientific Laboratories Supplies Ltd, Wilford, UK) using a Fluostar Omega microplate reader (BMG Labtech, Aylesbury, UK). The activity of ADAMTS-4 (1 nM) and -5 (5 nM) was monitored for 2 h using the fluorescent peptide substrates fluorescein 5(6)-carbonyl-Ala-Glu-Leu-[…]-Gly-Arg-Pro-Ile-Ser-Ile-Ala-Lys-N,N,N0,N0-tetramethyl-6-carboxyrhodamine-NH2 (FAM-AE ~ LQGRPISIAK-TAMRA, ADAMTS-4) and fluorescein 5(6)-carbonyl-Thr-Glu-Ser-Glu ~ Ser-Arg-Gly-Ala-Ile-Tyr-Lys-Lys-N,N,N0,N0-tetramethyl-6-carboxyrhodamine-NH2 (FAM-TESE ~ SRGAIYKK-TAMRA, ADAMTS-5) (custom-synthesized by Bachem, Bubendorf, Switzerland) with an excitation wavelength of 485 nm and an emission wavelength of 538 nm. Final substrate concentrations were 1 μM and 40 μM for ADAMTS-4 and -5, respectively. Fluorescence was expressed in relative fluorescence units (RFU) and normalized against a blank containing only buffer and substrate. Emission spectra were recorded at several concentrations of each compound to exclude auto-fluorescence and maximal inhibitor concentrations were selected accordingly.

ADAMTS-4 [2] = molecular target: T1, ADAMTS-4; experiment: Versican digestion assay (V1-5GAG, sandwich ELISA), ADAMTS-4; type: biochemical; details: protein substrate V1-5GAG; mean ± SEM (n = 3); read-out: IC50 (μM) V1-5GAG ATS4
Procedure: as §1
ADAMTS-5 full-length (FL) (final concentration 0.4 nM), ADAMTS-5 MDTCS (0.4 nM) ADAMTS-5 MD (26 nM) or ADAMTS-4 (5.5 nM) were incubated with different concentrations of inhibitors or DMSO for 2 h at 37 °C in TNC-B buffer before addition of V1-5GAG (50 nM). At different time points (0–20 min), sub-samples were removed and reactions were stopped with EDTA. Maxisorp plates (VWR, Lutterworth, UK) were coated with 5 μg/mL anti-DPEEAE neoepitope antibody (Cat n. PA1-1748A, Life Technologies, Paisley, UK) in carbonate buffer pH 9.6 (16 h, 4 °C). This neoepitope antibody specifically recognizes the N-terminal versican fragment versikine, generated when ADAMTS-5 cleaves versican at the Glu441↓442Ala bond. Washing steps were performed in triplicate with 300 μL phosphate buffered-saline (PBS) containing 0.1% Tween-20 between each step. Plates were blocked with 3% bovine serum albumin (BSA)/PBS for 2 h, at RT. The samples from the digestion experiments were diluted in 3% BSA/PBS and added to the plate (100 μL, 2 h, RT). Bound versikine fragments were detected using anti-G1 monoclonal antibody (Cat n. ab171887, Abcam, Cambridge, UK) (3 μg/mL in 0.5% BSA/PBS, 1.5 h, RT), followed by horseradish peroxidase (HRP)-conjugated anti-mouse antibodies (Cat. N. P044701-2, Agilent Technologies LTD, Cheadle, UK) (2.4 μg/mL, 1 h, RT). The assay was developed by addition of o-phenylenediamine dihydrochloride (OPD, Cat n. 34006, Sigma Aldrich, Gillingham, UK) for 10 min and reactions were stopped with 2 M H2SO4. The absorbance was measured at 492 nm using a BioTeK Epoch (BioTek, Swindon, UK) plate reader. For each dilution, the amount of neoepitope generated was derived from a standard curve (0–1.56 nM) of V1-5GAG completely digested with ADAMTS-5. Initial velocities were calculated from the concentration of versikine generated as a function of reaction time and IC50 values were determined.
For inhibition studies, initial rates of proteolysis (< 20% cleavage) were analyzed between 0 and 20 min. For determination of the specificity constants (kcat/Km), digestion reactions were allowed to occur to completion (0–2 h). Data were analyzed as previously described.

Row | IC50 (ADAMTS-4 [1]) [µM] | IC50 (ADAMTS-4 [2]) [µM] | SMILES
1 | > 50 | > 100 | CCC(C)N(Cc1cn(CCCOC(=O)c2ccccc2)nn1)S(=O)(=O)c1ccc(-c2ccccc2)cc1 (racemic) [Compound 6]
2 | > 50 | > 100 | CCC(C)N(Cc1cn(CCCOC2OC(CO)C(O)C(O)C2NC(C)=O)nn1)S(=O)(=O)c1ccc(-c2ccccc2)cc1 (mixture of isomers) [Compound 4b]
